# Measurements: patent US11400102B2, “Treatment for bacterial infections with salicylic acid analogs” (priority 2019, dated 2022)
# Entries after “also recorded” stand apart in the source; their conditions may differ. Where two headings read alike, the source gives them in different places.
# Tests used:
# [1] = system: yersiniabactin production; test: Yersiniabactin and intermediates (HPT, Esn) in clinical urinary E. coli isolates; format: cell-based; settings: 50 μM, FIGS. 30-33
# Procedure: The following clinical urinary E. coli isolates were chosen since they each secrete yersiniabactin: rUTI2, JMUSB64(490), JMUSB40(518), JMUSB115(530), JMUSB351(544), JMUB470(557), fCAUTI/B2 (sequence type ST131: ZZ13, ZZ15, ZZ16, ZZ18, ZZ22, and non ST131:ZZ23).
# Specifically, HPT and escherichelin (Esn) were measured alongside the end product yersiniabactin. In addition, the production of enterobactin was measured as a counterscreen. In FIGS. 30-33, relative amounts of each analyte (HPT, Esn, Yrt) are depicted for each culture exposed to 50 μM of each inhibitor. A graph corresponding to reference UTI89 is reproduced in each figure (upper left).
# There was negligible effect on enterobactin biosynthesis as well as less inhibition of biosynthetic precursors to yersiniabactin: HPT and HPTT. […] In this manner, HPTT/escherichelin production by E. coli may protect human hosts.
# [2] = system: yersiniabactin production; test: Dose response of yersiniabactin production in UTI89 culture; format: cell-based, Uropathogenic E. coli strain UTI89; settings: for EC50: Escherichia coli
# Procedure: Three biological triplicate experiments were completed wherein the % Ybt was measured relative to untreated controls (UTI189Δ189 in 70% ETOH). […] The experimental details describing how Ybt was quantified (using mass spectrometry) and how samples were prepared and treated are described in Chaturvedi, K S et al. Nature chemical biology. 8.8(2012):731-736.
# FIGS. 25 and 26 show the effect of 5-methyl salicylic acid on yersiniabactin production in an E. coli culture. In FIG. 25, a dose response curve of yersiniabactin synthesis in the presence of increasing concentrations of 5-methyl-salicylate is shown. Uropathogenic E. coli strain UTI89 were grown in low iron culture with the indicated concentrations of 5-methyl salicylate. Yersiniabactin content of culture supernatants was measured by LC-MS/MS relative to an internal standard. The EC50 was determined to be 0.89±0.10 μM. In FIG. 26 a representative mass spectra is depicted illustrating the presence of yersiniabactin fragments in untreated control (left panel) that are missing in media treated with 5-methyl salicylic acid (right panel).
# Uropathogenic bacteria were again grown in low iron culture in the presence of varying concentrations of salicylic acid serivatives having different methylation positions.
# [3] = system: yersiniabactin biosynthesis; test: Culture screen of salicylate analogs for yersiniabactin (Fe-Ybt) in UTI89 supernatant by LC-MS; format: cell-based, uropathogenic E. coli UTI89; settings: Escherichia coli, read-out: yersiniabactin inhibition
# Text: While investigating in vivo Ybt production in the mouse cystitis model, we observed that a salicylate synthase-deficient uropathogen (UTI89ΔybtS) produces Ybt at near-wild type levels (FIG. 6A). We biochemically connected this phenotype to a uropathogenic ability to scavenge low level urinary salicylate (of presumed dietary origin) (31) as a yersiniabactin biosynthetic substrate. Both human and mouse urine chemically complemented UTI89ΔybtS in this manner, showing that low micromolar salicylate accesses cytoplasmic siderophore biosynthetic enzymes. […] Active compounds could be further divided into those that inhibit the yersiniabactin biosynthetic activity and those that displace the native salicylate substrate, resulting in a variant form of yersiniabactin (vYbt) containing the modified salicylate ring (see fluorinated yersiniabactin in FIG. 6D). The latter process, termed mutasynthesis, has been described for the related pyochelin siderophore system in Pseudomonas (32).
# UTI189 cultures were grown overnight in media supplemented with M63+DP+CAA and 50 μM of a salicylic acid analog. Supernatants were then examined for ferric-Ybt and the area of the MS-peak corresponding to that complex was measured. […] In many cases, a 5-fold or greater reduction was observed (FIG. 17).
# As described in Example 10, a culture based screen of yersiniabactin biosynthetic inhibitor candidates was undertaken. The screening protocol is described in FIG. 20; E. coli were cultured in 96 well plates at 37° C. in the presence of various yersiniabactin inhibitor candidates. The yersiniabactin secretion in the media was measured using LC-MS using an internal standard (leucine encephalin). Bacterial growth, measured by optical density, was assessed for general toxicity and LC-MS quantification of enterobactin, a related but chemically and biochemically distinct, siderophore in medium at endpoint was measured for off-target activity.
# [4] = system: Ybt-deficient (UTI89ΔybtS) culture; test: Copper toxicity and Ybt cytoprotection in Ybt-deficient culture; settings: 10 μM cupric sulfate
# Procedure: Growth was determined and expressed as total CFU ml^−1. […] For each patient, the difference in urinary and nonurinary strain growth is reported such that a positive value indicates prefential growth by the urinary isolate. In the four patients from whom multiple coincident urinary and nonurinary strains were recovered, the mean growth difference is reported. […] NS, nonsignificant, indicating P>0.05. […] Results are shown as mean±s.d.; n=3; *P<0.05, **P<0.01 and ***P<0.001.
# yersiniabactin = test: Mutasynthesis study: incorporation of variant salicylic acids into yersiniabactin (LC-MS); format: cell-based, uropathogenic E. coli (UTI89ΔybtS)
# Procedure: FIG. 11 depicts the experimental protocol for the screening assay. […] a strain of uropathogenic E. coli (UTI89ΔybtS) that cannot produce endogenous salicylic acid but can be chemically complemented with salicylic acid in growth medium. […]+1% casamino acids (CAA) and 20 μM 2′,2′-dipyridyl (DP) were added along with a variety of variant salicylic acids (Table 1) bearing different moieties on carbons 3 to 6. The amount of Ypt in the sample was then quantified using LC-MS.
# Walking around the Figure from bottom left: -LC-MS method called neutral loss, where any molecule that loses 187 mass units that are characteristic of yersiniabactin, -different metal species of yersiniabactin can be detected in the supernatant of a UTI89 culture; these have distinct retention times by liquid chromatography; confirm that the molecules contributing to this LC peak are a variant yersiniabactin with a fluorine by the mass.
# UPEC urinary growth = test: Urinary growth assay in the presence of Lcn2; format: cell-based, uropathogenic E. coli; settings: human urine
# Text: Both neutrophils and epithelial cells produce and secrete the soluble protein Lipocalin 2 (Lcn2) into the urine and bladder lumen. Lcn2 binds a wide range of […] and their ferric complexes, presumably restricting their availability to bacteria (28). We used purified Lcn2, human urine specimens, and our panel of UPEC siderophore mutants to determine whether siderophore systems counteract Lcn2's presumed bacteriostatic activity. […] We further discovered that this phenotype varies between individual urines such that urinary growth is strongly enterobactin-dependent in some (“restrictive” individuals) and less so in others (“permissive” individuals). We have related this to a distinctive urinary metabolomic biomarker profile (29) in these individuals. […]
# Restored yersiniabactin biosynthesis in a salicylate synthase deletion mutant (UTI89ΔybtS) during UTI led us to evaluate the pathway's subsequent biosynthetic enzyme—the aryl acid adenylating enzyme (AAAE) YbtE—as a drug target. […] We evaluated YbtE and its enterobactin pathway equivalent EntE as candidate drug targets using a series of six rationally-designed, non-hydrolyzable nucleoside AAAE inhibitors from the laboratory of Courtney Aldrich (see collaboration letter).
# [5] = system: enterobactin production (EntE); test: Aryl acid adenylating enzyme inhibitors: enterobactin production by UTI89; format: cell-based, E. coli UTI89; settings: AAAE inhibitors
# Text: (§1) Restored yersiniabactin biosynthesis in a salicylate synthase deletion mutant (UTI89ΔybtS) during UTI led us to evaluate the pathway's subsequent biosynthetic enzyme—the aryl acid adenylating enzyme (AAAE) YbtE—as a drug target. UTI89ΔybtE produced no detectable yersiniabactin at 1 day, 1 week or 2 weeks following inoculation and is furthermore less virulent than wild type UTI89, as evidenced by a fewer chronically infected mice, a notable result for a non-conserved gene (FIG. 7A). We evaluated YbtE and its enterobactin pathway equivalent EntE as candidate drug targets using a series of six rationally-designed, non-hydrolyzable nucleoside AAAE inhibitors from the laboratory of Courtney Aldrich (see collaboration letter).
# [6] = system: yersiniabactin production (YbtE); test: Aryl acid adenylating enzyme inhibitors: yersiniabactin production by UTI89; format: cell-based, E. coli UTI89; settings: AAAE inhibitors
# Text: as §1
# To test whether interference with the downstream adenylating enzyme, YbtE, could also affect yersiniabactin production, a series of YbtE inhibitors were applied to cultures of UTI89 and the Fe-Ybt peak ratio measured (FIG. 19). UT189 was grown overnight in medium supplemented with M63, DP and CAA and 100 μM of the tested compounds. […] Therefore, the salicylic analogs may act to inhibit YbtE, rather than YbtS, in the biosynthetic pathway to reduce overall production of yersiniabactin.
# enterobactin production = settings: FIG. 37
# [7] = system: yersiniabactin production; settings: FIG. 37
structure (smiles),measurement,setting,value
Cc1ccc(O)c(C(=O)O)c1 [5-methylsalicylic acid],"order of yersiniabactin inhibition, most potent to least potent",[1],most potent
same,yersiniabactin expression in a variety of strains,[1],very effective
same,EC50,"[2]; read-out: EC50, % Ybt relative to untreated controls",~1.9 µM
same,EC50,"[2]; read-out: EIC, inhibits biosynthesis in culture",~2 µM
same,EC50,"[2]; UTI89, low iron culture, LC-MS/MS, FIG. 25, read-out: EC50, yersiniabactin content of culture supernatants",0.89 ± 0.1 µM
same,inhibition at 50 µM,[3],> 90%
Cc1cccc(O)c1C(=O)O [6-methylsalicylic acid],"yersiniabactin inhibitory activity, dose response","[2]; low iron culture, methylated salicylic acids, FIG. 27",limited activity
same,inhibition at 50 µM,[3],> 90%
"O=S(=O)([O-])[O-].[Cu+2] [copper, cupric sulfate]",decrease in viability,[4],> 3 log CFU ml^−1
O=C(O)c1c(O)cccc1F [6-fluorosalicylic acid],"order of yersiniabactin inhibition, most potent to least potent",[1],least potent
same,inhibition at 50 µM,[3],> 90%
O=C(O)c1cc(F)ccc1O [5-fluorosalicylic acid],incorporation into variants of yersiniabactin,yersiniabactin,incorporated; also recorded: incorporation
Nc1ncnc2c1ncn2[C@@H]1O[C@H](COS(=O)(=O)NC(=O)c2cccc(O)c2O)[C@@H](O)[C@H]1O [DHB-AMS],phenotype in the urinary growth assay,UPEC urinary growth,mimicked an enterobactin biosynthesis mutant phenotype
same,enterobactin production by UTI89,[5],completely inhibiting
same,yersiniabactin production by UTI89,[6],completely inhibiting
O=C(O)c1c(O)ccc2ccccc12 [2-hydroxy-1-naphthoic acid],incorporation into variants of yersiniabactin,yersiniabactin; listed as 2-hydroxy-1-naphoic acid,lack of incorporation
same,incorporation into variants of yersiniabactin,yersiniabactin; listed as 2-hydroxy-1-nathoic acid,not incorporated
"COc1cc(Cc2cnc(N)nc2N)cc(OC)c1OC [TMP, trimethoprim]",enterobactin production,enterobactin production,not
same,yersiniabactin production,[7],markedly decrease
Nc1ncnc2c1ncn2[C@@H]1O[C@H](COS(=O)(=O)NC(=O)c2ccccc2O)[C@@H](O)[C@H]1O [Sal-AMS],enterobactin production by UTI89,[5],completely inhibiting
same,yersiniabactin production by UTI89,[6],completely inhibiting
O=C(O)c1ccc(Cl)cc1O [4-chlorosalicylic acid],inhibition at 50 µM,[3],> 90%
